Source: patent US11903911B1, “Method of treating obesity by reversal of Na/K-Atpase inhibition” (Marshall University Research Corporation, priority 2019, dated 2024)
“Also recorded” adds a separate entry of the source.

Columns and labels:
[1] = test system: transporter activities; assay: L-NAME dose finding on intestinal transporter activities; type: in vivo; conditions: 10 or 25 mg/kg per day tested in mice and rats
Description: (§1) Animal models and treatment. Zucker rats (Strain code: 185 (Obese), 186 (Lean); 18 wks) obtained from Charles River Laboratories International, Inc. were used as a genetic model of obesity, and C57BL/6 mice (B6) (The Jackson Laboratory) and Sprague Dawley rats (Strain code: 400; Charles River Laboratories International, Inc.) were used as a diet-induced model of obesity. B6 mice were fed with either a low-fat diet (LFD) (10% calories from fat; Cat. No: 58124, LabDiet, USA) or high-fat diet (HFD) (60% calories from fat; Cat. No: 58126, LabDiet, USA) starting at 4 weeks of age until they reached 20 weeks of age. Sprague Dawley rats were fed the above-mentioned diets from the age of 12 weeks for 6 weeks to induce obesity. To inhibit constitutive nitric oxide production in both mice and rats, the animals were first treated with either a 10 or 25 mg/kg per day dosage of used N^G-nitro-L-arginine methyl ester (L-NAME). Studies determined that 10 mg dose of L-NAME was the lowest dose to consistently affect transporter activities and was therefore used in all subsequent experiments. For the diet-induced mice obesity model, LFD and HFD fed B6 mice were treated with this dose from the age of 20 weeks, and Sprague Dawley rats were treated from the age of 17 wks for 1 week. All the experimental animals were handled and euthanized according to Marshall University IACUC regulations.

[2] = test system: Cl:HCO3 exchange (DRA/PAT1); assay: Cl/HCO3 exchange uptake in BBMV of L-NAME-treated obese rats; type: in vivo, rat; conditions: obese rats (OZR) treated for at least one week with L-NAME; FIG. 22
Description: as §1, with “[…] Cl/HCO3 exchange uptake was measured in BBMV by rapid filtration technique as previously described. […] Results were calculated as” for “For”, “HCO3 dependent DIDS sensitive Cl uptake.” for “diet-induced mice obesity model, LFD and HFD fed B6 mice were treated with this dose from the age of 20 weeks, and Sprague Dawley rats were treated from the age of 17 wks for 1 week. All the experimental animals were handled and euthanized according to Marshall University IACUC regulations.”

[3] = test system: SGLT1; assay: Na-glucose co-transport (SGLT1) uptake in villus cell BBMV of L-NAME-treated obese rats; type: in vivo, rat; conditions: obese rats (OZR) treated for at least one week with L-NAME; FIG. 21
Description: as §1, with “To inhibit constitutive nitric oxide production in both mice and rats, the animals were first treated with either a 10 or 25 mg/kg per day dosage of used N^G-nitro-L-arginine methyl ester (L-NAME).” left out, “For the diet-induced mice obesity model, LFD and HFD fed B6 mice were treated with this dose from the age of 20 weeks, and Sprague Dawley rats were treated from the age of 17 wks for 1 week. All the experimental animals were handled and euthanized according to Marshall University IACUC regulations.” left out
Uptake studies in intact villus cells and BBMVs. […] Filters with intact villus cells were dissolved in 5 ml scintillation fluid (Ecoscint, National Diagnostics), and radioactivity was determined in a Beckman 6500 Beta Scintillation Counter. […] The uptake experiment results were expressed as Na-glucose co-transport uptake in nanomoles per milligram protein at 60 sec for mice or 90 sec for rats. […]

[4] = test system: NHE3; assay: Na/H exchange (NHE3) uptake in BBMV of L-NAME-treated obese rats; type: in vivo, rat; conditions: obese rats treated with L-NAME; FIG. 23
Description: as §1, with “[…] Na/H exchange uptake was measured in BBMV by rapid filtration technique as previously described. […] The results” for “For the diet-induced mice obesity model, LFD and HFD fed B6 mice”, “expressed as Na/H exchange in picomoles per milligram protein at 60 sec.” for “treated with this dose from the age of 20 weeks, and Sprague Dawley rats were treated from the age of 17 wks for 1 week. All the experimental animals were handled and euthanized according to Marshall University IACUC regulations.”

**Q.** For `COC(=O)[C@@H](N)CCCNC(=N)N[N+](=O)[O-]` [L-NAME, N^G-nitro-L-arginine methyl ester], which “lowest dose to consistently affect transporter activities” value [1] is on record?
**A.** Its value is 10 mg.

**Q.** What about the “effect on the stimulation of Cl:HCO3 (NaCl absorption) in obese rats” value [2] of the same molecule?
**A.** The value was “reversed the stimulation of Cl:HCO3”.

**Q.** And the “effect on the stimulation of SGLT1 (glucose absorption) in obese rats” value [3]?
**A.** Its value is “reversed the stimulation of SGLT1”.

**Q.** What about the “effect on NHE3 activity in obese rats” value [4] of the same molecule?
**A.** The value was “did not affect NHE3; also recorded: does not affect NHE3 activity”.
